This note sets out measurements from ChEMBL document CHEMBL3400026, “Synthesis of novel 24-amino-25,26,27-trinorlanost-8-enes: cytotoxic and apoptotic potential in U937 cells” (Bioorg Med Chem, 2015).

Test [1] in a line: Cytotoxicity against human U937 cells after 24 hrs by MTT assay. The class given is functional, cell-based. The note with it: U-937, 24 h. (In general: Formazan colour is commonly taken as a measure of viable cells.)
Test [2] relates to U-937. Put plainly: Induction of apoptosis in human U937 cells assessed as condensed/fragmented nuclei at 25 ug/ml after 24 hrs using Hoechst 33342 staining by microscopy relative to solvent control. The test is classed as functional.
For test [3], the system named is U-937. Put plainly: Induction of apoptosis in human U937 cells assessed as DNA fragmentation measured as DNA laddering at 25 ug/ml after 24 hrs by agarose gel electophoresis relative to solvent control. The class given is functional, cell-based.
The test system of test [4] is U-937. Put plainly: Induction of apoptosis in human U937 cells assessed as condensed/fragmented nuclei at 50 ug/ml after 24 hrs using Hoechst 33342 staining by microscopy relative to solvent control. The test is classed as functional.
In test [5] the test system is U-937. In words: Induction of apoptosis in human U937 cells assessed as caspase 3/7 level at 50 ug/ml after 24 hrs by Caspase-Glo 3/7 assay relative to solvent control. The class given is functional.
The test system of test [6] is U-937. Put plainly: Induction of apoptosis in human U937 cells assessed as caspase 3/7 level at 25 ug/ml after 24 hrs by Caspase-Glo 3/7 assay relative to solvent control. The test is classed as functional.
The subject of test [7] is U-937. Put plainly: Induction of apoptosis in human U937 cells assessed as condensed/fragmented nuclei at 10 ug/ml after 24 hrs using Hoechst 33342 staining by microscopy relative to solvent control. The class given is functional.
Test [8] has as its system U-937. In words: Induction of apoptosis in human U937 cells assessed as caspase 3/7 level at 10 ug/ml after 24 hrs by Caspase-Glo 3/7 assay relative to solvent control. The class given is functional.
Test [9] has as its system U-937. Put plainly: Induction of apoptosis in human U937 cells assessed as caspase 3/7 level at 5 ug/ml after 24 hrs by Caspase-Glo 3/7 assay relative to solvent control. The class given is functional.
Test [10] has as its system U-937. Put plainly: Induction of apoptosis in human U937 cells assessed as condensed/fragmented nuclei at 5 ug/ml after 24 hrs using Hoechst 33342 staining by microscopy relative to solvent control. The test is classed as functional.
Test [11] has as its system U-937. Put plainly: Induction of apoptosis in human U937 cells assessed as DNA fragmentation measured as DNA laddering at 5 ug/ml after 24 hrs by agarose gel electophoresis relative to solvent control. The class given is functional, cell-based.
In test [12] the test system is U-937. Put plainly: Induction of apoptosis in human U937 cells assessed as DNA fragmentation measured as DNA laddering at 10 ug/ml after 24 hrs by agarose gel electophoresis relative to solvent control. The class given is functional, cell-based.
Test [13] has as its system U-937. Put plainly: Induction of apoptosis in human U937 cells assessed as caspase 3/7 level at 12 ug/ml after 24 hrs by Caspase-Glo 3/7 assay relative to solvent control. The test is classed as functional.
Test [14] deals with U-937. In words: Induction of apoptosis in human U937 cells assessed as condensed/fragmented nuclei at 12 ug/ml after 24 hrs using Hoechst 33342 staining by microscopy relative to solvent control. The class given is functional.
Test [15] deals with U-937. Put plainly: Induction of apoptosis in human U937 cells assessed as DNA fragmentation measured as DNA laddering at 12 ug/ml after 24 hrs by agarose gel electophoresis relative to solvent control. The test is classed as functional, cell-based.

SMILES strings stand for the structures. Active and inactive are the calls of the source. The calls are words filed in the database; no cut-off is given here.

Consider `C[C@H](CCCNc1ccccc1)[C@H]1CC[C@@]2(C)C3=C(CC[C@]12C)[C@@]1(C)CC[C@H](O)C(C)(C)[C@@H]1CC3`, for which, in [1], the IC50 was 132 µM.

As to `CC(=O)O[C@H]1CC[C@]2(C)C3=C(CC[C@H]2C1(C)C)[C@]1(C)CC[C@H]([C@H](C)CCCN2CCCCC2)[C@@]1(C)CC3`, the Activity in the test on U-937 [2] worked out at 8.8%; in the test with U-937 [4] it was 10.6%; in the test on U-937 [5], 3.4%; in the test on U-937 [6] it was 1.9%. In the test with U-937 [3], the outcome was Active. In addition, in test [1], the IC50 stood at 14.9 µM.

Turning to `C[C@H](CCCN1CCN(CCO)CC1)[C@H]1CC[C@@]2(C)C3=C(CC[C@]12C)[C@@]1(C)CC[C@H](O)C(C)(C)[C@@H]1CC3`, the Activity in the test with U-937 [7] is listed as 6.6%; in the test with U-937 [8] it was 1.3%; with U-937 [9], 1.2%; with U-937 [10], 7.6%. Moreover, half-maximal inhibition in [1] (IC50) required 2.7 µM.

`C[C@H](CCCN1CCOCC1)[C@H]1CC[C@@]2(C)C3=C(CC[C@]12C)[C@@]1(C)CC[C@H](O)C(C)(C)[C@@H]1CC3` returned an IC50 in test [1] of 128 µM.

As for `C[C@H](CCCN1CCCCC1)[C@H]1CC[C@@]2(C)C3=C(CC[C@]12C)[C@@]1(C)CC[C@H](O)C(C)(C)[C@@H]1CC3`, the Activity in the test with U-937 [7] is given as 5.5%; with U-937 [8], 2.1%; with U-937 [9] it was 2%; with U-937 [10], 7.4%. Moreover, the result with U-937 [11] was Active. In addition, in [1], the IC50 is 1.9 µM.

For the compound `CCN(CC)CCC[C@@H](C)[C@H]1CC[C@@]2(C)C3=C(CC[C@]12C)[C@@]1(C)CC[C@H](O)C(C)(C)[C@@H]1CC3`, the Activity is recorded as 3% in the test with U-937 [7], 2.4% with U-937 [8], 2.3% in the test on U-937 [9] and 3.7% in the test with U-937 [10]. The result in the test on U-937 [11] was Active. Also, the IC50 in test [1] was 3.5 µM.

Consider `CC(=O)O[C@H]1CC[C@]2(C)C3=C(CC[C@H]2C1(C)C)[C@]1(C)CC[C@H]([C@H](C)CCCN2CCN(CCO)CC2)[C@@]1(C)CC3`, for which the Activity in the test on U-937 [7] was determined as 10.2%; in the test with U-937 [8] it was 7.8%; in the test on U-937 [9], 6.6%; in the test on U-937 [10], 7.3%. In addition, the result in the test on U-937 [12] was Active. Further, in [1], inhibition was half-maximal at 9.3 µM (IC50).

On to `CC(=O)O[C@H]1CC[C@]2(C)C3=C(CC[C@H]2C1(C)C)[C@]1(C)CC[C@H]([C@H](C)CCCNc2ccccc2)[C@@]1(C)CC3`, for which the IC50 in test [1] stood at 367 µM.

In test [1], `CC(=O)O[C@H]1CC[C@]2(C)C3=C(CC[C@H]2C1(C)C)[C@]1(C)CC[C@H]([C@H](C)CCCN2CCOCC2)[C@@]1(C)CC3` gave an IC50 of 148 µM.

Turning to `CCN(CC)CCC[C@@H](C)[C@H]1CC[C@@]2(C)C3=C(CC[C@]12C)[C@@]1(C)CC[C@H](OC(C)=O)C(C)(C)[C@@H]1CC3`, the Activity in the test on U-937 [2] stood at 6.6%; in the test on U-937 [7] it was 6.9%; with U-937 [8], 4.9%; in the test with U-937 [6] it was 7.3%. Also, in the test with U-937 [12], the outcome was Active. For the same compound, in test [1], the IC50 came out at 16.4 µM.

Regarding `CC(C)CCC[C@@H](C)[C@H]1CC[C@H]2[C@@H]3C(=O)C=C4C[C@@H](O)CC[C@]4(C)[C@H]3CC[C@]12C` [7-OXOCHOLESTEROL], the Activity with U-937 [13] was 2.2%; with U-937 [14] it was 7.3%. In the test on U-937 [15], the outcome was Active.

`COc1cc([C@@H]2c3cc4c(cc3[C@@H](O[C@@H]3O[C@@H]5CO[C@@H](C)O[C@H]5[C@H](O)[C@H]3O)[C@H]3COC(=O)[C@H]23)OCO4)cc(OC)c1O` [ETOPOSIDE]: the Activity in the test with U-937 [7] turned out to be 24.8%; in the test on U-937 [8], 5.9%; with U-937 [9] it was 6.4%; with U-937 [10], 23.7%. Besides, in the test on U-937 [11], the outcome was Active. The compound further gave an IC50 in test [1] of 1.5 µM.

Regarding `CC[N+]([O-])(CC)CCC[C@@H](C)[C@H]1CC[C@@]2(C)C3=C(CC[C@]12C)[C@@]1(C)CC[C@H](OC(C)=O)C(C)(C)[C@@H]1CC3`, the Activity in the test with U-937 [2] is listed as 7%; in the test on U-937 [4], 5%; with U-937 [5], 4.3%; with U-937 [6], 4.4%. For the same compound, the result in the test on U-937 [3] was Active. In [1], this compound gave an IC50 of 21.1 µM.

Usually IC50 stands for the concentration that gives 50% inhibition. A lower IC50 goes with greater potency.
